Values after ≈ are worked out from the molar mass of the structure shown.
Legend:
[1] = test system: multiple drug resistant P. aeruginosa; set-up: method as in doi:10.1016/j.foodcont.2018.02.044; settings: cited from earlier work
MRSA IBRS MRSA 011 [2] = experiment: Membrane permeability assay (nucleotide and protein leakage); format: cell-based, Staphylococcus aureus; settings: rutin MIC; more significant increase in absorbance at 260 and 280 nm after 90 min
Procedure: The effect of rutin on membrane permeability (nucleotide and protein leakage) was evaluated as described earlier with some modifications. The culture of P. aeruginosa IBRS P001 and MRSA IBRS MRSA 011 was incubated overnight at 37 °C, washed, and suspended in 10 mM PBS in order to achieve the final density of 10^8 CFU/mL. Bacteria were incubated with rutin at a concentration equal to MIC for time intervals 0, 30, 60, and 90 min. Bacteria incubated with PBS were used as control. After incubation the mixture was filtered through a 0.22 μm pore size filter to remove […]. The optical density of the filtrate was measured at 260 and 280 nm with an Agilent/HP 8453 UV-Visible Spectrophotometer (Agilent Technologies, Santa Clara, CA, USA) at room temperature (25 °C).

P. aeruginosa MTCC 2488 = test system: P. aeruginosa MTCC 2488; set-up: method as in doi:10.1016/j.foodcont.2018.02.044; settings: 48 h incubation, cited from earlier work
[3] = test system: 24 h old P. aeruginosa IBRS P001 biofilms; experiment: Biofilm eradication, crystal violet assay (biofilm mass); format: cell-based, Pseudomonas aeruginosa; settings: 4 MBC—4 mg/mL, 24 h treatment
Procedure: After incubation, each well was washed twice with sterile PBS (phosphate-buffered saline, pH 7.4) and fixed with methanol for 10 min. After removal of methanol the plate was air-dried. The biofilm was stained with 0.1% crystal violet (Bio-Merieux, Marcy l’Etoile, France) for 30 min. The plate was washed with water, air dried, and the stain was dissolved with 200 μL of 96% ethanol (Zorka, Sabac, Serbia). The absorbance was read at 620 nm on a Multiskan™ FC microplate photometer (Thermo Scientific™, Waltham, MA, USA). The results are presented as biofilm forming capacity (%) compared to control.
The bacterial cells were incubated in TSB enriched with 2% glucose in 96-well plates (Sarstedt, Germany) with adhesive bottom at 37 °C for 24 h. After incubation, wells were washed with PBS, and rutin (MBC–4 MBC) in TSB with 2% glucose was added. Incubation continued at 37 °C for another 24 h. The planktonic cells were removed.
The assays continued as described above for the crystal violet antibiofilm assay for the measurement of biofilm mass, biofilm MTT assay for the interference with cell viability, Congo red binding assay for estimation of exopolysaccharide production, and eDNA assay.

[4] = test system: P. aeruginosa IBRS P001 protease production; experiment: Protease assay (azocasein); format: cell-based, Pseudomonas aeruginosa; settings: 0.25 mg/mL (0.5 MIC), compared to the control
Procedure: The impact of rutin on the proteolytic activity of P. aeruginosa IBRS P001 was measured using azocasein as a substrate. […] Samples were centrifuged at 9660 g, room temperature, for 10 min (Heraeus biofuge stratos centrifuge, Thermo Electron Corporation, Waltham, MA, USA). Afterwards, the supernatant was mixed with azocasein (2%, SigmaAldrich, Germany) and incubated at 37 °C for 45 min. The reaction was stopped using 10% trichloroacetic acid and centrifuged at 9660× g, RT for 10 min. After centrifugation, the absorbance of the supernatants was measured at 440 nm and protease production in the treated sample calculated compared to the control (100% production).

K. pneumoniae IT977 = experiment: Antimicrobial microdilution assay (MIC/MBC); format: cell-based, Klebsiella pneumoniae; settings: Klebsiella pneumoniae, IT977
Procedure, shortened: (§1)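 Polyphenols 0.0039–1 mg/mL, stocks in 30% ethanol; inoculum 0.5 McFarland diluted twenty-fold, mixed 1:10; 24 h, 37 °C. MIC = no visible growth (binocular microscope). Streptomycin positive control, ethanol negative control; triplicate.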

K. pneumoniae Ni9 = experiment: Antimicrobial microdilution assay (MIC/MBC); format: cell-based, Klebsiella pneumoniae; settings: Klebsiella pneumoniae, NI9
Procedure, shortened: as §1

MRSA IBRS MRSA 011 [5] = format: cell-based, Staphylococcus aureus
Procedure: For the catheter biofilm eradication assay, P. aeruginosa and MRSA were incubated in TSB with 2% glucose with 1 cm long catheters in 24-well plates at 37 °C for 24 h. […] Subsequently, the catheters were washed and treated, as described above.

lasR = experiment: RT-qPCR analysis of QS genes; format: cell-based, Pseudomonas aeruginosa; settings: 0.5 MIC, 0.25 mg/mL, vs untreated control
Procedure: (§2) Reverse transcription-quantitative PCR (RT-qPCR) was performed to reveal the impact of rutin on the P. aeruginosa IBRS P001 quorum sensing (QS) regulatory genes expression. The total RNA was extracted from the P. aeruginosa IBRS P001 test strain (grown for 10 h, 37 °C, aerobically) cultivated in Mueller-Hinton medium and supplemented with rutin (0.250 mg/mL, final concentration) or without it by an RNeasy Mini Kit (Qiagen, Hilden, Germany). The same volume of the ethanol (solvent) was added in the positive control. The total RNA was then treated with DNase I using an Ambion DNA-freeTM Kit (ThermoFisher, Waltham, MA, USA) and reverse transcribed by a Rever-tAid RT Reverse transcription Kit (ThermoFisher, Waltham, MA, USA) according to the manufacturer’s instructions. […] Obtained data were normalized against the ribosomal gene rpsL as an internal control following the 2^−ΔΔCT method. Experiments were done in triplicate.

pqsA = experiment: RT-qPCR analysis of QS genes; format: cell-based, Pseudomonas aeruginosa; settings: 0.5 MIC, 0.25 mg/mL, vs untreated control
Procedure: as §2

rhlI = experiment: RT-qPCR analysis of QS genes; format: cell-based, Pseudomonas aeruginosa; settings: 0.5 MIC, 0.25 mg/mL, vs untreated control
Procedure: as §2

mvfR = experiment: RT-qPCR analysis of QS genes; format: cell-based, Pseudomonas aeruginosa; settings: 0.5 MIC, 0.25 mg/mL, vs untreated control
Procedure: as §2

lasI = experiment: RT-qPCR analysis of QS genes; format: cell-based, Pseudomonas aeruginosa; settings: 0.5 MIC, 0.25 mg/mL, vs untreated control
Procedure: as §2

rhlR = experiment: RT-qPCR analysis of QS genes; format: cell-based, Pseudomonas aeruginosa; settings: 0.5 MIC, 0.25 mg/mL, vs untreated control
Procedure: as §2

[6] = subcultivation, 24 h at 37 °C, read-out: MBC

C[C@@H]1O[C@@H](OC[C@H]2O[C@@H](Oc3c(-c4ccc(O)c(O)c4)oc4cc(O)cc(O)c4c3=O)[C@H](O)[C@@H](O)[C@@H]2O)[C@H](O)[C@H](O)[C@H]1O [Rutin, rutin]
MIC [1]: 800 µg/mL (≈ 1310 µM) | cell membrane integrity, in words (MRSA IBRS MRSA 011 [2]): disrupted | highest biofilm inhibition (P. aeruginosa MTCC 2488; 400 µg/mL): 45.33% | biofilm inhibition (P. aeruginosa MTCC 2488; sub-MIC concentrations 50–400 µg/mL): up to 50% | inhibition of pre-formed biofilm biomass [3]: 35% | decrease of protease production [4]: more than 50% | MIC (K. pneumoniae IT977; 37 °C, 24 h, read-out: MIC): 1000 µg/mL (≈ 1640 µM) | MBC (K. pneumoniae IT977; [6]): 1000 µg/mL (≈ 1640 µM) | MIC (K. pneumoniae Ni9; 37 °C, 24 h, read-out: MIC): 1000 µg/mL (≈ 1640 µM) | MBC (K. pneumoniae Ni9; [6]): 1000 µg/mL (≈ 1640 µM) | catheter biofilm eradicated (MRSA IBRS MRSA 011 [5]; 2 MBC, 24 h old biofilm): 74.2% | biofilm cells remained viable after the treatment (MRSA IBRS MRSA 011 [5]; 24 h old catheter biofilm, concentration not printed (MBC-4MBC tested, probably 4 MBC)): 9.6% | decrease of relative expression (lasR): about 1.7 times | downregulation of relative mRNA level (pqsA): 3 fold | downregulation of relative mRNA level (rhlI): 2.6 fold | decrease of relative expression (mvfR): 2.2 times | decrease of relative expression (lasI): 2.4 times | decrease of relative expression (rhlR): about 1.7 times

Source: article PMC8952364, “Polyphenols as Inhibitors of Antibiotic Resistant Bacteria—Mechanisms Underlying Rutin Interference with Bacterial Virulence” (Pharmaceuticals, 2022)
